Here are results for 25 compounds from the SangsterLogP compilation.

The logP is a log measure of how a compound divides between an organic and an aqueous phase. A low value points to a more hydrophilic compound. `COc1ncnc2c1ncn2[C@@H]1O[C@H](COC(=O)c2ccccc2)[C@@H](O)[C@@H]1OC(=O)c1ccccc1`: the logP stood at 3.39.

Consider `COc1ncnc2c1ncn2[C@@H]1O[C@H](COC(C)=O)[C@@H](OC(C)=O)[C@@H]1OC(C)=O`, for which the logP turned out to be 1.93.

Take `CCC(=O)OC[C@H]1O[C@@H](n2cnc3c(OC)ncnc32)[C@@H](OC(=O)CC)[C@@H]1OC(=O)CC`: the logP was determined as 2.75.

Regarding `COc1ncnc2c1ncn2[C@@H]1O[C@H](COS(C)(=O)=O)[C@@H](OS(C)(=O)=O)[C@@H]1OS(C)(=O)=O`, the logP was 0.58.

As to `COc1ncnc2c1ncn2[C@@H]1O[C@H](CO)[C@@H](OC(C)=O)[C@@H]1OC(C)=O`, the log partition coefficient (logP) came to 1.33.

In turn, `COc1ncnc2c1ncn2[C@@H]1O[C@H](CO)[C@@H](OC(=O)COc2ccccc2)[C@@H]1OC(=O)COc1ccccc1` returned a logP of 3.4.

In turn, `CCCC(=O)OC[C@H]1O[C@@H](n2cnc3c(OC)ncnc32)[C@@H](O)[C@@H]1OC(=O)CCC` showed a logP of 3.67.

In turn, `COc1ncnc2c1ncn2[C@@H]1O[C@H](CO)[C@@H](O)[C@@H]1O` gave a logP of 0.5.

On to `COc1ncnc2c1ncn2[C@@H]1O[C@H](COC(C)=O)[C@@H](OC(C)=O)[C@@H]1O`, for which the lipophilicity (logP) was 1.75.

`CCC(=O)OC[C@H]1O[C@@H](n2cnc3c(OC)ncnc32)[C@@H](O)[C@@H]1OC(=O)CC`: the lipophilicity (logP) was determined as 2.7.

`COc1ncnc2c1ncn2[C@@H]1O[C@H](CO)[C@@H](OC(=O)C(C)(C)C)[C@@H]1OC(=O)C(C)(C)C` returned a logP of 3.61.

As to `CCCCC(=O)O[C@H]1[C@H](OC(=O)CCCC)[C@@H](CO)O[C@H]1n1cnc2c(OC)ncnc21`, the logP worked out at 3.83.

In the case of `COc1ncnc2c1ncn2[C@@H]1O[C@H](COC(=O)C(C)C)[C@@H](O)[C@@H]1OC(=O)C(C)C`, the logP came out at 2.7.

Compound `COc1ccc(C(=O)OC[C@H]2O[C@@H](n3cnc4c(OC)ncnc43)[C@@H](OC(=O)c3ccc(OC)cc3)[C@@H]2O)cc1` returned a lipophilicity (logP) of 3.65.

Regarding `COc1ncnc2c1ncn2[C@@H]1O[C@H](COC(=O)COc2ccccc2)[C@@H](OC(=O)COc2ccccc2)[C@@H]1O`, the logP worked out at 4.06.

For the compound `COc1ncnc2c1ncn2[C@@H]1O[C@H](CO)[C@@H](OC(=O)c2ccccc2)[C@@H]1OC(=O)c1ccccc1`, the logP was 3.71.

Compound `CCCC(=O)OC1C(CO)OC(n2cnc3c(OC)ncnc32)C1OC(=O)CCC` (stereo not given) yielded a logP of 2.9.

Take `COc1ncnc2c1ncn2[C@@H]1O[C@H](COC(=O)C(C)C)[C@@H](OC(=O)C(C)C)[C@@H]1O`: the logP is 3.63.

`CCCCC(=O)OC[C@H]1O[C@@H](n2cnc3c(OC)ncnc32)[C@@H](OC(=O)CCCC)[C@@H]1O` returned a logP of 3.58.

`COc1ncnc2c1ncn2[C@@H]1O[C@H](COC(=O)Cc2ccccc2)[C@@H](OC(=O)Cc2ccccc2)[C@@H]1O` had a logP of 4.37.

The compound `CCC(=O)O[C@H]1[C@H](OC(=O)CC)[C@@H](CO)O[C@H]1n1cnc2c(OC)ncnc21` showed a log partition coefficient (logP) of 2.07.

`COc1ncnc2c1ncn2[C@@H]1O[C@H](CO)[C@@H](OC(=O)Cc2ccccc2)[C@@H]1OC(=O)Cc1ccccc1` had a lipophilicity (logP) of 3.48.

In the case of `COc1ncnc2c1ncn2[C@@H]1O[C@H](CO)[C@@H](OC(=O)C(C)C)[C@@H]1OC(=O)C(C)C`, the logP worked out at 2.82.

With `COc1ncnc2c1ncn2[C@@H]1O[C@H](COC(C)=O)[C@@H](O)[C@@H]1OC(C)=O`, the logP worked out at 1.4.

Turning to `COc1ncnc2c1ncn2[C@@H]1O[C@H](COC(=O)C(C)(C)C)[C@@H](O)[C@@H]1OC(=O)C(C)(C)C`, the logP was 3.4.
